Data published in US20050215490A1, “Polyene polyketides and methods of treating bacterial infections” (Ecopia BioSciences, Inc., priority 2003, published 2005).
Values after ≈ are worked out from the molar mass of the structure shown. Where two headings read alike, the source gives them in different places.

Key:
Assay type in all cases: cell-based
[1] = system: Staphylococcus aureus NRRL B-313 (ATCC™ 6538P); test: MIC at different pH
Experimental: Antibacterial activitiy of Compounds.3, 4, 5, 6 and 7 are accomplished using the same method in a panel of bacterial strains and Vancomycin as positive control.
Antibacterial efficacy of Compounds 1, 2, 3, 4, 5 and 6 on bacterial strain Staphylococcus aureus NRRL B-313 (ATCC™ 6538P) was determined at different pH concentrations.

[2] = system: Bacillus subtilis (ATCC™ 23857); test: MIC, broth microdilution (NCCLS M7-A5); conditions: ATCC23857, 18 h
Experimental: (§1) Antibacterial activity of Compounds 1 and 2 (Table 4) was measured by determining the minimal inhibitory concentration (MIC) necessary to obtain a complete inhibition of bacteria growth in eight indicator strains, namely Staphylococcus aureus (ATCC™ 6538P), Staphylococcus aureus MRS3 (ATCC™ 700699), Staphylococcus epidermidis (ATCC™ 12228), Bacillus subtilis (ATCC™ 23857), Bacillus megaterium (ATCC™ 14581), Enterococcus faecalis VRE-1 (ATCC™ 29212), Enterococcus faecalis VRE-2 (ATCC™ 51299) and Micrococcus luteus (ATCC™ 9341). Indicator strains preparation and MIC determination were performed according to the National Committee for Clinical Laboratory Standards (NCCLS) guideline M7-A5 Methods for Dilution Antimicrobial Susceptibility Tests for Bacteria That Grow Aerobically; Approved Standard-Fifth Edition. (NCCLS document M7-A5, ISBN 1-56238-394-9; NCCLS, 940 West Valley Road, Suite 1400, Wayne, Pa. 19087-1898 USA), the content of which is incorporated herein by reference.
(§2) Compounds 1 and 2 were prepared as 100× stock solution in DMSO, with concentrations ranging from 3.2 mg/ml to 0.00625 mg/ml (a two-fold dilution series over […]). An aliquot of each 100× stock solution was diluted 50-fold in test medium described below to give a set of ten (10) 2× solutions ranging from 64 to 0.125 μg/mL. 50 μl of each of the ten 2× solutions was aliquoted into the corresponding well of a 12-well row, with the final well reserved for medium alone control. Each test was made in duplicate.
(§3) Vancomycin (Sigma™) used as positive control compounds, was prepared as 2× stock solutions in sterile, double-distilled water (ddH2O) ranging from 64 μg/ml to […] (a two-fold dilution series over 10 points). An aliquot of 50 μl corresponding to each concentration (at 2×) was then transferred to 96-well microplates to obtain a series of eleven two-fold dilutions.
(§4) An isolated colony of each of the eight indicator strains was used to inoculate tubes containing 3 ml of test medium. Mueller-Hinton test medium was used for Staphylococcus aureus (ATCC™ 6538P), Staphylococcus aureus MRS3 (ATCC™ 700699), Staphylococcus epidermidis (ATCC™ 12228), Bacillus subtilis (ATCC™ 23857), Bacillus megaterium (ATCC™ 14581) and Micrococcus luteus (ATCC™ 9341) indicator strains, and BHI (Brain-Heart Infusion broth) test medium was used for Enterococcus faecalis VRE-1 (ATCC™ 29212) and Enterococcus faecalis VRE-2 (ATCC™ 51299) indicator strains. Cells were grown overnight at 28° C. with shaking. Inoculum density for each indicator strain was adjusted to OD600=0.1 in 5 ml 0.85% saline, then further diluted 1/100 in appropriate medium. 50 μl of the final dilution (in test medium) of each indicator strain was added to each well of a 12-well row. This brings the final dilution of the test article or control compound in solution to 1×. The final inoculum is approximately 5×10^5 CFU/ml.
(§5) The indicator strains were incubated with 11 concentrations of each of Compounds 1 and 2, Vancomycin (Sigma™) control compound and one media alone control. For MIC determination, assay plates were incubated at 35° C. for 18 hours.

[3] = system: Enterococcus faecalis VRE-2 (ATCC™ 51299); test: MIC, broth microdilution (NCCLS M7-A5); conditions: 18 h
Experimental: as §1, §2, §3, §4, §5

[4] = system: Staphylococcus aureus MRS3 (ATCC™ 700699); test: MIC, broth microdilution (NCCLS M7-A5); conditions: ATCC700699, 18 h
Experimental: as §1, §2, §3, §4, §5

[5] = system: Bacillus megaterium (ATCC™ 14581); test: MIC, broth microdilution (NCCLS M7-A5); conditions: Priestia megaterium, ATCC14581, 18 h
Experimental: as §1, §2, §3, §4, §5

[6] = system: Enterococcus faecalis VRE-1 (ATCC™ 29212); test: MIC, broth microdilution (NCCLS M7-A5); conditions: 18 h
Experimental: as §1, §2, §3, §4, §5

[7] = system: Staphylococcus aureus (ATCC™ 6538P); test: MIC, broth microdilution (NCCLS M7-A5); conditions: ATCC6538P, 18 h
Experimental: as §1, §2, §3, §4, §5

[8] = system: Micrococcus luteus (ATCC™ 9341); test: MIC, broth microdilution (NCCLS M7-A5); conditions: ATCC9341, 18 h
Experimental: as §1, §2, §3, §4, §5

[9] = system: Staphylococcus epidermidis (ATCC™ 12228); test: MIC, broth microdilution (NCCLS M7-A5); conditions: ATCC12228, 18 h
Experimental: as §1, §2, §3, §4, §5

[10] = in vitro; conditions: sheep
Experimental: A. Toxicity: Acute toxicities were determined using CD-1 female mice (supplied by Charles River Laboratories, Wilmington, Mass.) having a bodyweight of 18-25 g, and about 6 weeks of age. Compounds 1 and 2 at doses ranging from 1 to 70 mg/kg (formulated in 20% propylene glycol/water for a total volume of 10 μL/g of weight) were administered intraperitoneal (i.p.) and intravenous (i.v.) to groups of 5 mice (5 mice per concentration, per mode of administration). Two groups of 3 mice were injected with vehicle only. Mice were observed immediately after injection, within 4 hours and once a day for the subsequent days. Acute toxicity studies of Compound 1 in mice indicated no observable effect and high dose tolerability: 70 mg/kg intraperitoneal and 50 mg/kg intravenous (an MTD of 250 mg/kg was also determined by oral administration). […] In vitro Haemolytic activity results are also shown in Table 7, along with the in vivo toxicity and efficacy of Compound 1.

[11] = S. aureus ATCC 6538P, pH 5.0, read-out: MIC
[12] = S. aureus ATCC 6538P, pH 6.0, read-out: MIC
[13] = S. aureus ATCC 6538P, pH 7.0, read-out: MIC

| SMILES | MIC [1, 11] [µg/mL] | MIC [1, 12] [µg/mL] | MIC [1, 13] [µg/mL] | other results |
| --- | --- | --- | --- | --- |
| COC(=O)C1OC(OC(/C(C)=C/C(C)CCC/C=C/C(C)C/C=C/CCCN(C)C(=N)N)C(C)/C=C/C=C/C=C/C=C/C=C(\C)C(=O)NC2=C(O)CCC2=O)C(O)C(O)C1O (stereo not shown) [Compound 3, 3,4,5-trihydroxy-6-[1-[11-(2-hydroxy-5-oxocyclopent-1-enylcarbamoyl)-1-methyldodeca-2,4,6,8,10-pentaenyl]-2,4,10-trimethyl-16-(N-methyl-guanidino)-hexadeca-2,8,12-trienyloxy]-tetrahydropyran-2-carboxylic acid methyl ester] | 2 (≈ 2.35 µM) | 4 to 8 (≈ 4.7 to 9.4 µM) | 16 (≈ 18.8 µM) | – |
| CC(=O)NC(=N)N(C)CCC/C=C/CC(C)/C=C/CCCC(C)/C=C(\C)C(OC1OC(C(=O)O)C(O)C(O)C1O)C(C)/C=C/C=C/C=C/C=C/C=C(\C)C(=O)NC1=C(O)CCC1=O (stereo not shown) [Compound 6, 6-{16-(N′-acetyl-N-methylguanidino)-1-[11-(2-hydroxy-5-oxocyclopent-1-enylcarbamoyl)-1-methyldodeca-2,4,6,8,10-pentaenyl]-2,4,10-trimethylhexadeca-2,8,12-trienyloxy}-3,4,5-trihydroxytetrahydropyran-2-carboxylic acid] | 0.25 (≈ 0.284 µM) | 0.5 (≈ 0.569 µM) | 2 (≈ 2.28 µM) | – |
| C\C(=C/C=C/C=C/C=C/C=C/C(C)C(OC1OC(C(=O)O)C(O)C(O)C1O)/C(C)=C/C(C)CCC/C=C/C(C)C/C=C/CCCN(C)C(=N)N)C(=O)O (stereo not shown) [Compound 7, 6-[1-(11-carboxy-1-methyldodeca-2,4,5,8,10-pentaenyl)-2,4,10-trimethyl-16-(N-methylguanidino)-hexadeca-2,8,12-trienyloxy]-3,4,5-trihydroxy-tetrahydropyran-2-carboxylic acid] | – | – | 32 to 64 (≈ 43.1 to 86.3 µM) | – |
| CN[C@H](CC(C)C)C(=O)N[C@H]1C(=O)N[C@@H](CC(N)=O)C(=O)N[C@H]2C(=O)N[C@H]3C(=O)N[C@H](C(=O)N[C@H](C(=O)O)c4cc(O)cc(O)c4-c4cc3ccc4O)[C@H](O)c3ccc(c(Cl)c3)Oc3cc2cc(c3O[C@@H]2O[C@H](CO)[C@@H](O)[C@H](O)[C@H]2O[C@H]2C[C@](C)(N)[C@H](O)[C@H](C)O2)Oc2ccc(cc2Cl)[C@H]1O [Vancomycin, reference compound] | – | – | – | MIC ([1]; pH 5): 1 µg/mL (≈ 0.69 µM); MIC ([1]; pH 6): 1 µg/mL (≈ 0.69 µM); MIC ([1]; pH 7): 1 µg/mL (≈ 0.69 µM); MIC [2]: 0.25 µg/mL (≈ 0.173 µM); MIC [3]: 8 to 16 µg/mL (≈ 5.52 to 11 µM); MIC [4]: 4 µg/mL (≈ 2.76 µM); MIC [5]: 0.125 µg/mL (≈ 0.0863 µM); MIC [6]: 4 µg/mL (≈ 2.76 µM); MIC [7]: 2 µg/mL (≈ 1.38 µM); MIC [8]: 1 µg/mL (≈ 0.69 µM); MIC [9]: 2 µg/mL (≈ 1.38 µM) |
| C[C@@H]1[C@H](O)[C@@H](C)/C=C/C=C/C=C/C=C/C=C/C=C/C=C/[C@H](O[C@@H]2O[C@H](C)[C@@H](O)[C@H](N)[C@@H]2O)C[C@@H]2O[C@](O)(C[C@@H](O)C[C@@H](O)[C@H](O)CC[C@@H](O)C[C@@H](O)CC(=O)O[C@H]1C)C[C@H](O)[C@H]2C(=O)O [Amphotericin, reference compound] | – | – | – | EC50 [10]: 3 µg/mL (≈ 3.25 µM) |
| COC(=O)C1OC(OC(C(C)=CC(C)CCCC=CC(C)CC=CCCCN(C)C(=N)N)C(C)C=CC=CC=CC=CC=C(C)C(=O)NC2=C(OC)CCC2=O)C(O)C(O)C1O (stereo not shown) [Compound 5, 3,4,5-trihydroxy-6-[1-[11-(2-methoxy-5-oxo-cyclopent-1-enylcarbamoyl)-1-methyldodeca-2,4,6,8,10-pentaenyl]-2,4,10-trimethyl-16-(N-methyl-guanidino)-hexadeca-2,8,12-trienyloxy]-tetrahydropyran-2-carboxylic acid methyl ester] | 2 (≈ 2.31 µM) | 4 (≈ 4.62 µM) | 4 (≈ 4.62 µM) | – |
| COC1=C(NC(=O)/C(C)=C/C=C/C=C/C=C/C=C/C(C)C(OC2OC(C(=O)O)C(O)C(O)C2O)/C(C)=C/C(C)CCC/C=C/C(C)C/C=C/CCCN(C)C(=N)N)C(=O)CC1 (stereo not shown) [Compound 4, 3,4,5-trihydroxy-6-[1-[11-(2-methoxy-5-oxo-cyclopent-1-enylcarbamoyl)-1-methyldodeca-2,4,6,8,10-pentaenyl]-2,4,10-trimethyl-16-(N-methyl-guanidino)-hexadeca-2,8,12-trienyloxy]-tetrahydropyran-2-carboxylic acid] | 2 (≈ 2.35 µM) | 2 (≈ 2.35 µM) | 2 (≈ 2.35 µM) | – |
